Test [1] concerns the target T1, WRN (Homo sapiens, UniProt Q14191).
T1 construct: A His-tagged construct of WRN (AA S2-S1235) was produced and used for the ATPase assay; His; made in house; host or cells: Sf9 insect cells (baculovirus, pFastBac1)
Kind of test: WRN ATPase activity assay (ADP-Glo). The format is biochemical. The note with it: 1-hr pre-incubation with enzyme; 100 μM ATP, 25 nM forked dsDNA, 1 nM WRN; geometric mean of at least 2 replicates. The protocol:
Compounds of the Examples were tested for WRN ATPase activity. WRN ATPase activity catalyzes ATP hydrolysis to produce ADP and phosphate. DNA encoding the target protein, 6×HIS-TEV-WRN-517-945, was produced, cloned and transfected as detailed in Example D. The amount of ADP produced was measured using ADP-Glo™ Kinase Assay kit from Promega Corporation in a Greiner white regular volume 384 wells assay plate (Greiner #781075). Data was normalized to a standard curve generated using various ADP concentrations and the corresponding luminescent signal intensities at each concentration. The assay conditions were optimized for enzyme concentration (WRN), substrate concentrations (ATP & dsDNA), and the linearity of the ATPase reaction, in the following assay buffer: 50 mM Tris-HCl, pH-7.5, 2 mM MgCl2, 50 mM NaCl, 1 mM EGTA, 0.01% P-20, 0.05% BSA, and 2 mM DTT prepared with nuclease free water.
A serial dilution (1:3 scheme) of the compounds were prepared in neat DMSO, with 100 nL of the compounds dispensed in the 384 wells assay plate. An 1-hr pre-incubation of the compounds with enzyme was included. A His-tagged construct of WRN (AA S2-S1235) was produced and used for the ATPase assay. Maximum inhibition control wells were set up with the addition of only assay buffer, and no inhibition control wells were set up with neat DMSO without test compounds. The reaction was initiated by addition of 5 μL substrate mix (200 μM ultrapure ATP, and 50 nM dsDNA prepared in assay buffer) and incubated at 25° C. for 35 min. A forked dsDNA oligomer substrate was prepared by annealing equal amounts of oligo GPat-1 ([BHQ2][…]) and oligo GPat-2 ([…][TAM]) and was used as dsDNA substrate for WRN ATPase assay. A typical ATPase reaction consists of 25 nM forked dsDNA, 100 μM ATP, and 1 nM WRN prepared in assay buffer. The WRN ATPase reaction was stopped by the addition of 5 μL of ADP-Glo Reagent from ADP-Glo™ Kinase Assay kit and incubated for 40 min to deplete the unreacted ATP. Afterwards, 5 μL of Kinase Detection Reagent from the ADP-Glo™ Kinase Assay kit was added and incubated for 1 hr for the development of luminescence signal.
Luminesce signals were measured on BMG PHERAstar FSX using luminescence protocol. Data analysis was carried out using Genedata software following % of control normalization. Fitting parameters include dose response IC50, Hill slope (n), maximum inhibition (S∞), and minimum inhibition (S0). The reported IC50 values for compounds in this invention are the geometric means of at least 2 independent replicates.
A general note: ADP-Glo turns the ADP formed in a reaction into a luminescent signal.

The target in test [2] is T1, WRN. Kind of test: WRN Helicase activity assay (fluorescence DNA unwinding). The format is biochemical. The conditions noted are these: 1-hr pre-incubation with enzyme; 100 μM ATP, 25 nM forked dsDNA, 1 nM WRN; geometric mean of at least 2 replicates. The protocol:
Compounds of the examples were tested for WRN helicase activity. DNA encoding the target protein, 6×HIS-TEV-WRN-517-945, was produced, cloned and transfected as detailed in Example D. To determine the inhibitory properties of the compounds, a 384 wells plate-based Helicase assay was set up to measure the extent of DNA unwinding (Helicase) activity of WRN. The WRN Helicase assay was designed to measure increase in fluorescence signal using a fluorescence based, donor-quencher paired forked dsDNA oligomer substrate (custom synthesis from Sigma-Aldrich) prepared by annealing equal amounts of oligo GPat-1 ([BHQ2][…]) and oligo GPat-2 ([…][TAM]). Continuous measurement of fluorescent signal was used to optimize the buffer conditions, concentration of enzyme (WRN), concentration of substrates (ATP & dsDNA), and the linearity of the Helicase reaction. All solutions were prepared in the following assay buffer: 50 mM Tris-HCl, pH-7.5, 2 mM MgCl2, 50 mM NaCl, 1 mM EGTA, 0.01% P-20, 0.05% BSA, and 2 mM DTT prepared with nuclease free water.
A serial dilution (1:3 scheme) of the compounds was prepared in neat DMSO and 100 nL of the compounds was dispensed in the Greiner black low volume (Greiner #784076) 384 wells assay plate. An 1-hr pre-incubation of the compounds with enzyme was included. A His-tagged construct of WRN (AA S2-S1235) was produced and used for the ATPase assay. Maximum inhibition control wells were set up with the addition of only assay buffer, and no inhibition control wells were set up with neat DMSO without test compounds. The reaction was initiated by addition of 5 μL substrate mix (200 μM ultrapure ATP, and 50 nM dsDNA prepared in assay buffer) and incubated at 25° C. for 35 min. A typical Helicase reaction consists of 25 nM forked dsDNA, 100 μM ATP, and 1 nM WRN prepared in assay buffer. The WRN Helicase reaction was quenched by the addition of 5 μL ‘STOP’ solution containing 100 mM EDTA (final EDTA concentration 33.33 mM) prepared in assay buffer. The plates were read on BMG PHERAstar FSX using 540/590 module to measure an increase of fluorescence. Data analysis was carried out using the Genedata software following % of control normalization. Fitting parameters include dose response IC50, Hill slope (n), maximum inhibition (S∞), and minimum inhibition (S0). The reported IC50 values for compounds in this invention are the geometric means of at least 2 independent replicates.

A value given as a limit tells only on which side of the number the result lay.

T1 sequence (Q14191 2-1235): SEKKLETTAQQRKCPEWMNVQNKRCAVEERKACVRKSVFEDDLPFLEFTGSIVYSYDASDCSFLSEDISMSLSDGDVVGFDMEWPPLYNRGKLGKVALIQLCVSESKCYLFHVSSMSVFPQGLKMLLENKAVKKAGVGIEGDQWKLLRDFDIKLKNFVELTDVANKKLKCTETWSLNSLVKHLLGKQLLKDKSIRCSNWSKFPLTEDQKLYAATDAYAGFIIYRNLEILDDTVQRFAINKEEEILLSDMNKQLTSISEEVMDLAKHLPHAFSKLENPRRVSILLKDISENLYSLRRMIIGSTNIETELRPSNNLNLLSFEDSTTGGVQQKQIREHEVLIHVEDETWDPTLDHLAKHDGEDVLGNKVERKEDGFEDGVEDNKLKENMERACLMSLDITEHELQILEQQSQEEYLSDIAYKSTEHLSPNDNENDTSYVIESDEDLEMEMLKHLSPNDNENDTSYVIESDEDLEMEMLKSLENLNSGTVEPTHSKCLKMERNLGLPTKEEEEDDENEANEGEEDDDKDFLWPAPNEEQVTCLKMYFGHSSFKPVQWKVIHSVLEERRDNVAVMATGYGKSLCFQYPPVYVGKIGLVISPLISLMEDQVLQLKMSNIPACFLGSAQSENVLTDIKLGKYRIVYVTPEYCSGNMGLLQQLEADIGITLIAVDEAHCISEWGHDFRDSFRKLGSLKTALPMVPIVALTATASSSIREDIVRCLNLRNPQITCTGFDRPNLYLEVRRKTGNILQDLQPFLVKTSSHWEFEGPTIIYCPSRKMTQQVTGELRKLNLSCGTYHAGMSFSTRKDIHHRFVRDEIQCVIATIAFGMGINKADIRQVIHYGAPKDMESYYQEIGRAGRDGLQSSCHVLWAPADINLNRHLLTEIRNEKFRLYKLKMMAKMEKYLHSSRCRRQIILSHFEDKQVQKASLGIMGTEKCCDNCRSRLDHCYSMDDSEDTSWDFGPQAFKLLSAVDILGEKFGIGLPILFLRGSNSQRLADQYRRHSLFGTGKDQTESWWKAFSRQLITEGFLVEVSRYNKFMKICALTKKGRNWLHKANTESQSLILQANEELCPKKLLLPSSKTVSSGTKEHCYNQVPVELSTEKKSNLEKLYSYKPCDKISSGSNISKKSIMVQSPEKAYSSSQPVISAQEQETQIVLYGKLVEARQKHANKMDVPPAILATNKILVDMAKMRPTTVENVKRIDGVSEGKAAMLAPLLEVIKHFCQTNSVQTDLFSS

For the compound `C=CC(=O)Nc1ccccc1-c1c(CC)c(C#N)c2n(CC(=O)Nc3ccc(C(F)(F)F)cc3)c3ccccc3n2c1=O` [Example 25, N-(2-(4-Cyano-3-ethyl-1-oxo-5-(2-oxo-2-((4-(trifluoromethyl)phenyl)amino)ethyl)-1,5-dihydrobenzo[4,5]imidazo[1,2-a]pyridin-2-yl)phenyl)acrylamide], the IC50 against WRN [1] and on WRN [2] was 100 to 500 nM each time.
For the compound `C=CC(=O)Nc1ccccc1-c1c(CC)cc2n(CC(=O)Nc3ccc(C(F)(F)F)cc3)c3ccccc3n2c1=O` [Example 26, N-(2-(3-Ethyl-1-oxo-5-(2-oxo-2-((4-(trifluoromethyl)phenyl)amino)ethyl)-1,5-dihydrobenzo[4,5]imidazo[1,2-a]pyridin-2-yl)phenyl)acrylamide], the IC50 (usually the concentration that inhibits the measured activity by half) is 100 to 500 nM against WRN [1] and < 100 nM against WRN [2].

Values taken from patent US20250215006A1, “TRICYCLIC COMPOUNDS AS INHIBITORS OF WRN” (Incyte Corporation, priority 2023, published 2025).
